Measured values: US20230092648A1, “COMBINATION CONTAINING A DUOCARMYCIN DERIVATIVE-COMPRISING ANTIBODY-DRUG CONJUGATE AND THIOSULFATE” (BYONDIS B.V., priority 2020, published 2023)

Settings: formulations up to a concentration of 0.3 M STS; ocular route

SMILES: O=S(O)(O)=S [STS, sodium thiosulfate]
- adverse findings (local tolerance and toxicity): did not show adverse findings
